Assay results published in patent publication US11440910B2, “Pesticidally active heterocyclic derivatives with sulfur containing substituents” (SYNGENTA PARTICIPATIONS AG, priority 2017, dated 2022).

Experiments:
[1] = test system: Plutella xylostella (Diamond back moth); assay: Example B3: Plutella xylostella, artificial diet; format: in vivo; settings: 120 h, application rate 200 ppm, L2 larvae, 5 days after infestation, read-out: effect in at least one of the two categories (mortality or growth inhibition)
Method: Example B3: Plutella Xylostella (Diamond Back Moth)
(§1) 24-well microtiter plates with artificial diet were treated with aqueous test solutions prepared from 10′000 ppm DMSO stock solutions by pipetting. After drying, the plates were infested with L2 larvae (10 to 15 per well). The samples were assessed for mortality and growth inhibition in comparison to untreated samples 5 days after infestation.

[2] = test system: Diabrotica balteata (Corn root worm); assay: Example B4: Diabrotica balteata, maize sprouts sprayed; format: in vivo; settings: 96 h, application rate 200 ppm, L2 larvae, 4 days after infestation, read-out: effect in at least one of the two categories (mortality or growth inhibition)
Method: Example B4: Diabrotica Balteata (Corn Root Worm)
as §1, with “Maize sprouts placed onto an agar layer in 24-well” for “24-well”, “plates” for “plates with artificial diet”, “spraying.” for “pipetting.”, “(6” for “(10”, “10” for “15”, “4” for “5”

[3] = test system: Myzus persicae (Green peach aphid); assay: Example B6: Myzus persicae, roots of pea seedlings in test solution; format: in vivo; settings: 144 h, test rate 24 ppm, mixed ages, 6 days after placing seedlings into test solutions
Method: Example B6: Myzus Persicae (Green Peach Aphid)
Roots of pea seedlings infested with an aphid population of mixed ages were placed directly into aqueous test solutions prepared from 10′000 DMSO stock solutions. The samples were assessed for mortality 6 days after placing seedlings into test solutions.

[4] = test system: Spodoptera littoralis (Egyptian cotton leaf worm); assay: Example B2: Spodoptera littoralis, systemic test via lettuce roots in agar; format: in vivo; settings: 144 h, test rate 12.5 ppm, 6 days after infestation, read-out: effect in at least one of the three categories (mortality, anti-feeding, or growth inhibition)
Excerpt: Example B2: Spodoptera Littoralis (Egyptian Cotton Leaf Worm)
Test compounds were applied by pipette from 10′000 ppm DMSO stock solutions into 24-well plates and mixed with agar. Lettuce seeds were placed onto the agar and the multi well plate was closed by another plate which contained also agar. After 7 days the compound was absorbed by the roots and the lettuce grew into the lid plate. The lettuce leaves were then cut off into the lid plate. Spodoptera eggs were pipetted through a plastic stencil onto a humid gel blotting paper and the lid plate was closed with it. The samples were assessed for mortality, anti-feedant effect and growth inhibition in comparison to untreated samples 6 days after infestation.

[5] = test system: Myzus persicae (Green peach aphid); assay: Example B5: Myzus persicae, sunflower leaf discs sprayed; format: in vivo; settings: foliar, 144 h, application rate 200 ppm, mixed ages, 6 days after infestation
Method: Example B5: Myzus Persicae (Green Peach Aphid)
Sunflower leaf discs were placed onto agar in a 24-well microtiter plate and sprayed with aqueous test solutions prepared from 10′000 ppm DMSO stock solutions. After drying, the leaf discs were infested with an aphid population of mixed ages. The samples were assessed for mortality 6 days after infestation.

[6] = test system: Euschistus heros (Neotropical brown stink bug); assay: Example B8: Euschistus heros, soybean leaves sprayed; format: in vivo; settings: 120 h, application rate 200 ppm, N2 nymphs, 5 days after infestation, read-out: effect in at least one of the two categories (mortality or growth inhibition)
Method: Example B8: Euschistus Heros (Neotropical Brown Stink Bug)
Soybean leaves on agar in 24-well microtiter plates were sprayed with aqueous test solutions prepared from 10′000 ppm DMSO stock solutions. After drying the leaves were infested with N2 nymphs. The samples were assessed for mortality and growth inhibition in comparison to untreated samples 5 days after infestation.

[7] = test system: Bemisia tabaci (Cotton white fly); assay: Example B7: Bemisia tabaci, cotton leaf discs sprayed; format: in vivo; settings: foliar, 144 h, application rate 200 ppm, adult white flies, 6 days after incubation
Method: Example B7: Bemisia Tabaci (Cotton White Fly)
Cotton leaf discs were placed on agar in 24-well microtiter plates and sprayed with aqueous test solutions prepared from 10′000 ppm DMSO stock solutions. After drying the leaf discs were infested with adult white flies. The samples were checked for mortality 6 days after incubation.

[8] = test system: Spodoptera littoralis (Egyptian cotton leaf worm); assay: Example B1: Spodoptera littoralis, cotton leaf discs sprayed; format: in vivo; settings: foliar, 72 h, application rate 200 ppm, L1 larvae, 3 days after infestation, read-out: control (at least one of mortality, anti-feedant effect, growth inhibition)
Method: Example B1: Spodoptera Littoralis (Egyptian Cotton Leaf Worm)
Cotton leaf discs were placed onto agar in 24-well microtiter plates and sprayed with aqueous test solutions prepared from 10′000 ppm DMSO stock solutions. After drying the leaf discs were infested with five L1 larvae. The samples were assessed for mortality, anti-feeding effect, and growth inhibition in comparison to untreated samples 3 days after infestation. Control of Spodoptera littoralis by a test sample is given when at least one of the categories mortality, anti-feedant effect, and growth inhibition is higher than the untreated sample.

Structure (SMILES) | percent effect (mortality or growth inhibition) at 200 ppm [1] [%] | percent effect (mortality or growth inhibition) at 200 ppm [2] [%] | mortality at 24 ppm [3] [%] | mortality at 200 ppm [5] [%] | percent effect (mortality or growth inhibition) at 200 ppm [6] [%] | further results
CCS(=O)(=O)c1cc(C(C)(C)C#N)cnc1-c1nc2cc(C(F)(F)F)nnc2n1C [Compound P2, 2-[5-ethylsulfonyl-6-[7-methyl-3-(trifluoromethyl)imidazo[4,5-c]pyridazin-6-yl]-3-pyridyl]-2-methyl-propanenitrile] | ≥ 80 | ≥ 80 | ≥ 80 | ≥ 80 | ≥ 80 | percent effect (mortality, anti-feeding or growth inhibition) at 12.5 ppm [4]: ≥ 80%; mortality at 200 ppm [7]: ≥ 80%; percent control (mortality, anti-feedant effect or growth inhibition) at 200 ppm [8]: ≥ 80%
CCS(=O)(=O)c1cc(C(C)(C)C#N)cnc1-c1nc2cc(C(F)(F)F)ncc2n1C [Compound P5, 2-[5-ethylsulfonyl-6-[3-methyl-6-(trifluoromethyl)imidazo[4,5-c]pyridin-2-yl]-3-pyridyl]-2-methyl-propanenitrile] | ≥ 80 | ≥ 80 | ≥ 80 | ≥ 80 | ≥ 80 | mortality at 200 ppm [7]: ≥ 80%; percent control (mortality, anti-feedant effect or growth inhibition) at 200 ppm [8]: ≥ 80%
CCC(C#N)c1cnc(-c2nc3cc(C(F)(F)F)ncc3n2C)c(S(=O)(=O)CC)c1 (centres unmarked) [Compound P4, 2-[5-ethylsulfonyl-6-[3-methyl-6-(trifluoromethyl)imidazo[4,5-c]pyridin-2-yl]-3-pyridyl]butanenitrile] | ≥ 80 | ≥ 80 |  | ≥ 80 |  | 
CCS(=O)(=O)c1cc(C(F)(F)C#N)cnc1-c1nc2cc(C(F)(F)F)ncc2n1C [Compound P15, 2-[5-ethylsulfonyl-6-[3-methyl-6-(trifluoromethyl)imidazo[4,5-c]pyridin-2-yl]-3-pyridyl]-2,2-difluoro-acetonitrile] |  | ≥ 80 | ≥ 80 | ≥ 80 | ≥ 80 | 
CCC(C#N)(CC)c1cnc(-c2nc3cc(C(F)(F)F)ncc3n2C)c(S(=O)(=O)CC)c1 [Compound P3, 2-ethyl-2-[5-ethylsulfonyl-6-[3-methyl-6-(trifluoromethyl)imidazo[4,5-c]pyridin-2-yl]-3-pyridyl]butanenitrile] | ≥ 80 | ≥ 80 |  |  |  | 
CCS(=O)(=O)c1cc(C(C)(C)C#N)cnc1-c1nc2cc(C(F)(F)C(F)(F)F)ncc2n1C [Compound P20, 2-[5-ethylsulfonyl-6-[3-methyl-6-(1,1,2,2,2-pentafluoroethyl)imidazo[4,5-c]pyridin-2-yl]-3-pyridyl]-2-methyl-propanenitrile] |  |  |  |  |  | melting point: 212 to 213 °C
CCOC(=O)C(C)(C#N)c1cnc(-c2nc3cc(C(F)(F)F)ncc3n2C)c(S(=O)(=O)CC)c1 (centres unmarked) [Compound P9, ethyl 2-cyano-2-[5-ethylsulfonyl-6-[3-methyl-6-(trifluoromethyl)imidazo[4,5-c]pyridin-2-yl]-3-pyridyl]propanoate] | ≥ 80 |  |  |  | ≥ 80 | 
CCS(=O)(=O)c1cc(C(C)C#N)cnc1-c1nc2cc(C(F)(F)F)ncc2n1C (centres unmarked) [Compound P6, 2-[5-ethylsulfonyl-6-[3-methyl-6-(trifluoromethyl)imidazo[4,5-c]pyridin-2-yl]-3-pyridyl]propanenitrile] |  | ≥ 80 | ≥ 80 |  | ≥ 80 | 
CCS(=O)(=O)c1cc(C(C)(F)C#N)cnc1-c1nc2cc(C(F)(F)F)ncc2n1C (centres unmarked) [Compound P18, 2-[5-ethylsulfonyl-6-[3-methyl-6-(trifluoromethyl)imidazo[4,5-c]pyridin-2-yl]-3-pyridyl]-2-fluoro-propanenitrile] |  |  |  |  |  | melting point: 202 to 204 °C
CCS(=O)(=O)c1cc(C(C)(C#N)C#N)cnc1-c1nc2cc(C(F)(F)F)ncc2n1C [Compound P1, 2-[5-ethylsulfonyl-6-[3-methyl-6-(trifluoromethyl)imidazo[4,5-c]pyridin-2-yl]-3-pyridyl]-2-methyl-propanedinitrile] |  |  |  |  |  | melting point: 222 to 223 °C
CCS(=O)(=O)c1cc(C(C#N)C(C)C)cnc1-c1nc2cc(C(F)(F)F)ncc2n1C (centres unmarked) [Compound P10, 2-[5-ethylsulfonyl-6-[3-methyl-6-(trifluoromethyl)imidazo[4,5-c]pyridin-2-yl]-3-pyridyl]-3-methyl-butanenitrile] | ≥ 80 | ≥ 80 | ≥ 80 | ≥ 80 |  | 
CCS(=O)(=O)c1cc(C(C)(C)C#N)ccc1-c1nc2cc(C(F)(F)F)nnc2n1C [Compound P12, 2-[3-ethylsulfonyl-4-[7-methyl-3-(trifluoromethyl)imidazo[4,5-c]pyridazin-6-yl]phenyl]-2-methyl-propanenitrile] | ≥ 80 | ≥ 80 | ≥ 80 | ≥ 80 | ≥ 80 | mortality at 200 ppm [7]: ≥ 80%
CCS(=O)(=O)c1cc(C(C)(C)C#N)cnc1-c1nc2cc(Br)ncc2n1C [Compound P19, 2-[6-(6-bromo-3-methyl-imidazo[4,5-c]pyridin-2-yl)-5-ethylsulfonyl-3-pyridyl]-2-methyl-propanenitrile] |  |  | ≥ 80 |  | ≥ 80 | 
CCSc1cc(C(C)C#N)ccc1-c1nc2cc(C(F)(F)F)nnc2n1C (centres unmarked) [Compound P13, 2-[3-ethylsulfanyl-4-[7-methyl-3-(trifluoromethyl)imidazo[4,5-c]pyridazin-6-yl]phenyl]propanenitrile] |  |  |  |  | ≥ 80 | 
CCSc1cc(C(C)(C)C#N)ccc1-c1nc2cc(C(F)(F)F)nnc2n1C [Compound P11, 2-[3-ethylsulfanyl-4-[7-methyl-3-(trifluoromethyl)imidazo[4,5-c]pyridazin-6-yl]phenyl]-2-methyl-propanenitrile] |  | ≥ 80 |  |  | ≥ 80 | mortality at 200 ppm [7]: ≥ 80%
CCSc1cc(C(C)(C)C#N)ccc1-c1nc2cc(C(F)(F)F)ncc2n1C [Compound P16, 2-[3-ethylsulfanyl-4-[3-methyl-6-(trifluoromethyl)imidazo[4,5-c]pyridin-2-yl]phenyl]-2-methyl-propanenitrile] |  | ≥ 80 |  |  | ≥ 80 | 
